Source: patent US11820766B2, “Monoacylglycerol lipase modulators” (Janssen Pharmaceutica NV, priority 2018, dated 2023)

biological target: T1, human MGL from HeLa cells (Homo sapiens, UniProt Q99685); assay: In vitro MGL activity assay: [glycerol-1,3-3H]-oleyl glycerol cleavage by MGL from HeLa cells; assay type: biochemical; details: 300 nM [Glycerol-1,3-3H]-oleyl glycerol, one hour incubation
T1 construct: combining endogenously expressed MGL from HeLa cells with test compounds; endogenous in cells; host or cells: HeLa cells / cell homogenates
T1 sequence (Q99685 1-303): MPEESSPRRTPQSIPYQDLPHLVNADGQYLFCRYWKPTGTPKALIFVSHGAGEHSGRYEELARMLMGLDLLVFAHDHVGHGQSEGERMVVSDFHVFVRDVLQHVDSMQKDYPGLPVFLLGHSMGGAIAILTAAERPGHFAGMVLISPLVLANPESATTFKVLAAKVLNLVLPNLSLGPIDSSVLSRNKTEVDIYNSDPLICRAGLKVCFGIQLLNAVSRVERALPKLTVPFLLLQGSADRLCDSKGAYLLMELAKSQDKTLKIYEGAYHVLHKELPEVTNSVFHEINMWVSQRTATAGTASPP
Source text: MGL is the predominant hydrolase in HeLa cells/cell homogenates.

SMILES | IC50
CC1c2nn(C)c(-c3cc(F)cc(F)c3)c2CCN1C(=O)c1ncn(-c2ccccc2)n1 (stereo not drawn) [Example 148, (3-(3,5-Difluorophenyl)-2,7-dimethyl-2,4,5,7-tetrahydro-6H-pyrazolo[3,4-c]pyridin-6-yl)(1-phenyl-1H-1,2,4-triazol-3-yl)methanone] | 67.1 nM
CCc1nc(C(=O)N2CCc3c(nn(C)c3-c3cc(F)cc(F)c3)[C@@H]2C)nn1-c1ccccc1 [Example 149, (S)-(3-(3,5-Difluorophenyl)-2,7-dimethyl-2,4,5,7-tetrahydro-6H-pyrazolo[3,4-c]pyridin-6-yl)(5-ethyl-1-phenyl-1H-1,2,4-triazol-3-yl)methanone] | 11.9 nM
C[C@H]1c2nn(C)c(-c3cc(F)cc(F)c3)c2CCN1C(=O)c1cccc2c1ccn2CCF [Example 150, (S)-(3-(3,5-Difluorophenyl)-2,7-dimethyl-2,4,5,7-tetrahydro-6H-pyrazolo[3,4-c]pyridin-6-yl)(1-(2-fluoroethyl)-1H-indol-4-yl)methanone] | 0.67 nM
C[C@H]1c2nn(C)c(-c3cc(F)cc(F)c3)c2CCN1C(=O)c1ccnc2c1ccn2CCF [Example 152, (S)-(3-(3,5-Difluorophenyl)-2,7-dimethyl-2,4,5,7-tetrahydro-6H-pyrazolo[3,4-c]pyridin-6-yl)(1-(2-fluoroethyl)-1H-pyrrolo[2,3-b]pyridin-4-yl)methanone] | 1.63 nM
C[C@H]1c2nn(C)c(-c3cc(F)cc(F)c3)c2CCN1C(=O)c1cnc2ccoc2c1 [Example 153, (S)-(3-(3,5-Difluorophenyl)-2,7-dimethyl-2,4,5,7-tetrahydro-6H-pyrazolo[3,4-c]pyridin-6-yl)(furo[3,2-b]pyridin-6-yl)methanone] | 15.4 nM
C[C@@H]1c2nn(C)c(-c3cc(F)cc(F)c3)c2CCN1C(=O)c1cnc2ccoc2c1 [Example 154, (R)-(3-(3,5-Difluorophenyl)-2,7-dimethyl-2,4,5,7-tetrahydro-6H-pyrazolo[3,4-c]pyridin-6-yl)(furo[3,2-b]pyridin-6-yl)methanone] | 6550 nM
CC1c2nn(C(F)F)c(-c3cc(F)cc(F)c3)c2CCN1C(=O)c1ccc2ncccc2c1 (stereo not drawn) [Example 155, (2-(Difluoromethyl)-3-(3,5-difluorophenyl)-7-methyl-2,4,5,7-tetrahydro-6H-pyrazolo[3,4-c]pyridin-6-yl)(quinolin-6-yl)methanone] | 4.63 nM
CC1c2nn(C(F)(F)F)c(-c3cc(F)cc(F)c3)c2CCN1C(=O)c1ccc2ncccc2c1 (stereo not drawn) [Example 156, (3-(3,5-Difluorophenyl)-7-methyl-2-(trifluoromethyl)-2,4,5,7-tetrahydro-6H-pyrazolo[3,4-c]pyridin-6-yl)(quinolin-6-yl)methanone] | 17 nM
[2H]C([2H])([2H])n1nc2c(c1-c1cc(F)cc(F)c1)CCN(C(=O)c1ccc3ncccc3c1)C2C (stereo not drawn) [Example 157, (3-(3,5-Difluorophenyl)-7-methyl-2-(methyl-d3)-2,4,5,7-tetrahydro-6H-pyrazolo[3,4-c]pyridin-6-yl)(quinolin-6-yl)methanone] | 13.8 nM
CC1c2nn(C)c(-c3cc(F)cc(F)c3)c2CCN1C(=O)c1cc2ccccc2cn1 (stereo not drawn) [Example 160, (3-(3,5-Difluorophenyl)-2,7-dimethyl-2,4,5,7-tetrahydro-6H-pyrazolo[3,4-c]pyridin-6-yl)(isoquinolin-3-yl)methanone] | 260 nM
CC1c2nn(C)c(-c3cc(F)cc(F)c3)c2CCN1C(=O)c1ccc2ccncc2c1 (stereo not drawn) [Example 161, (3-(3,5-Difluorophenyl)-2,7-dimethyl-2,4,5,7-tetrahydro-6H-pyrazolo[3,4-c]pyridin-6-yl)(isoquinolin-7-yl)methanone] | 260 nM
CC1c2nn(C)c(-c3cc(F)cc(F)c3)c2CCN1C(=O)c1ccc2nccc(Br)c2c1 (stereo not drawn) [Example 162, (4-Bromoquinolin-6-yl)(3-(3,5-difluorophenyl)-2,7-dimethyl-2,4,5,7-tetrahydro-6H-pyrazolo[3,4-c]pyridin-6-yl)methanone] | 11.3 nM
CC1c2nn(C)c(-c3cc(F)cc(F)c3)c2CCN1C(=O)c1ccc2ncccc2c1Cl (stereo not drawn) [Example 163, (5-Chloroquinolin-6-yl)(3-(3,5-difluorophenyl)-2,7-dimethyl-2,4,5,7-tetrahydro-6H-pyrazolo[3,4-c]pyridin-6-yl)methanone] | 11.8 nM
C[C@H]1c2nn(C)c(-c3cc(F)cc(F)c3)c2CCN1C(=O)c1cc(C(F)(F)F)c2ncccc2c1 [Example 164, (S)-(3-(3,5-Difluorophenyl)-2,7-dimethyl-2,4,5,7-tetrahydro-6H-pyrazolo[3,4-c]pyridin-6-yl)(8-(trifluoromethyl)quinolin-6-yl)methanone] | 38.4 nM
C[C@H]1c2nn(C)c(-c3cc(F)cc(F)c3)c2CCN1C(=O)c1ccc2ncc(C(F)(F)F)cc2c1 [Example 165, (S)-(3-(3,5-Difluorophenyl)-2,7-dimethyl-2,4,5,7-tetrahydro-6H-pyrazolo[3,4-c]pyridin-6-yl)(3-(trifluoromethyl)quinolin-6-yl)methanone] | 103 nM
C[C@H]1c2nn(C)c(-c3cc(F)cc(F)c3)c2CCN1C(=O)c1ccc2ncc(OCCF)cc2c1 [Example 166, (S)-(3-(3,5-Difluorophenyl)-2,7-dimethyl-2,4,5,7-tetrahydro-6H-pyrazolo[3,4-c]pyridin-6-yl)(3-(2-fluoroethoxy)quinolin-6-yl)methanone] | 11.3 nM
CC1c2nn(C)c(-c3cc(F)cc(F)c3)c2CCN1C(=O)c1ccc2nccnc2c1 (stereo not drawn) [Example 167, (3-(3,5-Difluorophenyl)-2,7-dimethyl-2,4,5,7-tetrahydro-6H-pyrazolo[3,4-c]pyridin-6-yl)(quinoxalin-6-yl)methanone] | 25.1 nM
C[C@H]1c2nn(C)c(-c3cc(F)cc(F)c3)c2CCN1C(=O)c1ccc2ncccc2n1 [Example 170] | 23.2 nM
C[C@H]1c2nn(C)c(-c3cc(F)cc(F)c3)c2CCN1C(=O)c1cc2nccnc2cc1F [Example 171, (S)-(3-(3,5-Difluorophenyl)-2,7-dimethyl-2,4,5,7-tetrahydro-6H-pyrazolo[3,4-c]pyridin-6-yl)(7-fluoroquinoxalin-6-yl)methanone] | 13 nM
Cc1nc2ccc(C(=O)N3CCc4c(nn(C)c4-c4cc(Cl)cc(Cl)c4)[C@@H]3C)cc2o1 [Example 172, (S)-(3-(3,5-Dichlorophenyl)-2,7-dimethyl-2,4,5,7-tetrahydro-6H-pyrazolo[3,4-c]pyridin-6-yl)(2-methylbenzo[d]oxazol-6-yl)methanone] | 4.89 nM
C[C@H]1c2nn(C)c(-c3cc(Cl)cc(Cl)c3)c2CCN1C(=O)c1nn(C)c2ncccc12 [Example 173, (S)-(3-(3,5-Dichlorophenyl)-2,7-dimethyl-2,4,5,7-tetrahydro-6H-pyrazolo[3,4-c]pyridin-6-yl)(1-methyl-1H-pyrazolo[3,4-b]pyridin-3-yl)methanone] | 18 nM
C[C@H]1c2nn(C)c(-c3cc(Cl)cc(Cl)c3)c2CCN1C(=O)c1ccc2ncccc2c1 [Example 174, (S)-(3-(3,5-Dichlorophenyl)-2,7-dimethyl-2,4,5,7-tetrahydro-6H-pyrazolo[3,4-c]pyridin-6-yl)(quinolin-6-yl)methanone] | 2.62 nM
C[C@H]1c2nn(C)c(-c3cc(Cl)cc(Cl)c3)c2CCN1C(=O)c1ccc2nccnc2c1 [Example 175, (S)-(3-(3,5-Dichlorophenyl)-2,7-dimethyl-2,4,5,7-tetrahydro-6H-pyrazolo[3,4-c]pyridin-6-yl)(quinoxalin-6-yl)methanone] | 6.24 nM
Cc1cnc2cc(C(=O)N3CCc4c(nn(C)c4-c4cc(Cl)cc(Cl)c4)[C@@H]3C)ccc2n1 [Example 176, (S)-(3-(3,5-Dichlorophenyl)-2,7-dimethyl-2,4,5,7-tetrahydro-6H-pyrazolo[3,4-c]pyridin-6-yl)(2-methylquinoxalin-6-yl)methanone] | 8.49 nM
CC1c2nn(C)c(-c3cc(F)cc(Cl)c3)c2CCN1C(=O)c1ccc2ncccc2c1 (stereo not drawn) [Example 177, (3-(3-Chloro-5-fluorophenyl)-2,7-dimethyl-2,4,5,7-tetrahydro-6H-pyrazolo[3,4-c]pyridin-6-yl)(quinolin-6-yl)methanone] | 15.9 nM
C[C@H]1c2nn(C)c(-c3cc(F)cc(Cl)c3)c2CCN1C(=O)c1ccc2ncccc2c1 [Example 178, (S)-(3-(3-Chloro-5-fluorophenyl)-2,7-dimethyl-2,4,5,7-tetrahydro-6H-pyrazolo[3,4-c]pyridin-6-yl)(quinolin-6-yl)methanone] | 4.16 nM
C[C@@H]1c2nn(C)c(-c3cc(F)cc(Cl)c3)c2CCN1C(=O)c1ccc2ncccc2c1 [Example 179, (R)-(3-(3-Chloro-5-fluorophenyl)-2,7-dimethyl-2,4,5,7-tetrahydro-6H-pyrazolo[3,4-c]pyridin-6-yl)(quinolin-6-yl)methanone] | 593 nM
CC1c2nn(C)c(-c3cc(F)cc(Cl)c3)c2CCN1C(=O)c1ccc2nccnc2c1 (stereo not drawn) [Example 180, (3-(3-Chloro-5-fluorophenyl)-2,7-dimethyl-2,4,5,7-tetrahydro-6H-pyrazolo[3,4-c]pyridin-6-yl)(quinoxalin-6-yl)methanone] | 31.3 nM
C[C@H]1c2nn(C)c(-c3cc(F)cc(Cl)c3)c2CCN1C(=O)c1ccc2nccnc2c1 [Example 181, (S)-(3-(3-Chloro-5-fluorophenyl)-2,7-dimethyl-2,4,5,7-tetrahydro-6H-pyrazolo[3,4-c]pyridin-6-yl)(quinoxalin-6-yl)methanone] | 6.37 nM
C[C@@H]1c2nn(C)c(-c3cc(F)cc(Cl)c3)c2CCN1C(=O)c1ccc2nccnc2c1 [Example 182, (R)-(3-(3-Chloro-5-fluorophenyl)-2,7-dimethyl-2,4,5,7-tetrahydro-6H-pyrazolo[3,4-c]pyridin-6-yl)(quinoxalin-6-yl)methanone] | > 10000 nM
